The source of these data is ChEMBL document CHEMBL4619709, “Synthesis and in-vitro anti-cancer evaluations of multi-methoxylated asymmetrical diarylpentanoids as intrinsic apoptosis inducer against colorectal cancer” (Bioorg Med Chem Lett, 2020).

In series [1] the test system is HT-29. Put plainly: Antiproliferative activity against human HT-29 cells assessed as reduction in cell viability after 72 hrs by MTT assay. Type of series: functional, cell-based. The following applies: HT-29, 72 h.
Series [2] can be described thus: Therapeutic index, ratio of IC50 for human NHDF cells to IC50 for human NCI-H508 cells after 72 hrs. Type of series: toxicity. The conditions noted are these: NHDF cells versus NCI-H508 cells, read-out: Ratio IC50.
Series [3] in a line: Therapeutic index, ratio of IC50 for human NHDF cells to IC50 for human SW620 cells after 72 hrs. Type of series: toxicity. The following applies: NHDF cells versus SW620 cells, read-out: Ratio IC50.
Series [4] has as its system T84. Put plainly: Antiproliferative activity against human T84 cells assessed as reduction in cell viability after 72 hrs by MTT assay. Type of series: functional, cell-based. The conditions noted are these: T84, 72 h.
The nature of series [5]: Therapeutic index, ratio of IC50 for human NHDF cells to IC50 for human RKO cells after 72 hrs. Type of series: toxicity. The conditions noted are these: NHDF cells versus RKO cells, read-out: Ratio IC50.
Series [6] relates to NCI-H508. Nature of the series: Antiproliferative activity against human NCI-H508 cells assessed as reduction in cell viability after 72 hrs by MTT assay. The conditions noted are these: NCI-H508, 72 h. Type of series: functional, cell-based.
For series [7], the system named is RKO. Nature of the series: Antiproliferative activity against human RKO cells at 10 uM after 72 hrs by MTT assay. Format: functional, cell-based.
The subject of series [8] is LoVo. Nature of the series: Antiproliferative activity against human LoVo cells assessed as reduction in cell viability after 72 hrs by MTT assay. Type of series: functional, cell-based.
Series [9] deals with SW-620. Put plainly: Antiproliferative activity against human SW620 cells assessed as reduction in cell viability after 72 hrs by MTT assay. The following applies: SW-620, 72 h. Format: functional, cell-based.
Series [10] deals with HT-29. Nature of the series: Antiproliferative activity against human HT-29 cells at 10 uM after 72 hrs by MTT assay. Type of series: functional, cell-based.
Series [11] is described as follows: Therapeutic index, ratio of IC50 for human NHDF cells to IC50 for human HT-29 cells after 72 hrs. Type of series: toxicity. The conditions noted are these: NHDF cells versus HT-29 cells, read-out: Ratio IC50.
Series [12] in a line: Therapeutic index, ratio of IC50 for human NHDF cells to IC50 for human T84 cells after 72 hrs. Type of series: toxicity. The following applies: NHDF cells versus T84 cells, read-out: Ratio IC50.
The subject of series [13] is NCI-H508. Put plainly: Antiproliferative activity against human NCI-H508 cells at 10 uM after 72 hrs by MTT assay. Format: functional, cell-based.
Series [14] is described as follows: Therapeutic index, ratio of IC50 for human NHDF cells to IC50 for human LoVo cells after 72 hrs. Type of series: toxicity. The conditions noted are these: NHDF cells versus LoVo cells, read-out: Ratio IC50.
Series [15] concerns T84. Nature of the series: Antiproliferative activity against human T84 cells at 10 uM after 72 hrs by MTT assay. Type of series: functional, cell-based.
Series [16] deals with LoVo. Nature of the series: Antiproliferative activity against human LoVo cells at 10 uM after 72 hrs by MTT assay. Type of series: functional, cell-based.
The test system of the next series is NHDF. Nature of the series: Cytotoxicity against human NHDF cells assessed as reduction in cell viability. Format: cell-based.
Series [17] has as its system RKO. Put plainly: Antiproliferative activity against human RKO cells assessed as reduction in cell viability after 72 hrs by MTT assay. Format: functional, cell-based.
For series [18], the system named is SW-620. Put plainly: Antiproliferative activity against human SW620 cells at 10 uM after 72 hrs by MTT assay. Type of series: functional, cell-based.

Calls of active or inactive are those of the source. The rule behind the calls is not given here. Some results are limits rather than exact numbers.

For `COc1cc(/C=C2\CCC/C(=C\c3ccccc3Br)C2=O)cc(OC)c1OC`, the half-inhibitory concentration (IC50) with HT-29 [1] was 2.8 µM; with T84 [4], 4.2 µM; in the series with NCI-H508 [6] it was 2.7 µM; with LoVo [8], 2.8 µM; in the series with SW-620 [9], 3.3 µM; with NHDF, 12.4 µM. The 50% inhibitory concentration (IC50) with RKO [17] amounted to 2.5 µM. Also, the selectivity ratio at 72 h in [2], in series [3], in [5], in series [11], in [12] and in series [14] was 3 to 5 each time. In addition, the result in the series on RKO [7], in the series on HT-29 [10], in the series on NCI-H508 [13], with T84 [15], in the series with LoVo [16] and in the series on SW-620 [18] was Active.
With `COc1cccc(/C=C2\CCC/C(=C\c3cc(OC)c(OC)c(OC)c3)C2=O)c1OC`, the IC50 in the series on HT-29 [1] stood at 3.2 µM; with T84 [4], 3.9 µM; in the series on NCI-H508 [6], 4.8 µM; in the series on LoVo [8], 2.6 µM; in the series with SW-620 [9], 4.5 µM; in the series with NHDF, 18.8 µM. Also, the half-maximal inhibitory concentration (IC50) with RKO [17] is 3.6 µM. The selectivity ratio at 72 h in series [2], in series [3], in series [5], in series [11], in series [12] and in series [14] was 3.9 to 7.2 throughout. Further, the result in the series with RKO [7], in the series on HT-29 [10], in the series on NCI-H508 [13], in the series with T84 [15], in the series on LoVo [16] and in the series with SW-620 [18] was Active.
As to `COc1cc(/C=C2\CCC/C(=C\c3cccc(O)c3)C2=O)cc(OC)c1OC`, the IC50 in the series on HT-29 [1] is 7.6 µM; with T84 [4], 6.5 µM; with NCI-H508 [6], 5.6 µM; in the series on LoVo [8], 4.8 µM; in the series with SW-620 [9] it was over 10 µM; with NHDF, 25.3 µM. The half-inhibitory concentration (IC50) with RKO [17] came to 6.5 µM. Moreover, the selectivity ratio at 72 h in [2], in [3], in series [5], in series [11], in series [12] and in series [14] was 3.3 to 5.3 each time. Also, the result with RKO [7], with HT-29 [10], with NCI-H508 [13], in the series on T84 [15], in the series on LoVo [16] and in the series with SW-620 [18] was Active.
As for `O=c1[nH]cc(F)c(=O)[nH]1` [FLUOROURACIL], the concentration for half-maximal inhibition (IC50) in the series on HT-29 [1] is over 10 µM; in the series on T84 [4], over 10 µM; in the series on NCI-H508 [6], 8.8 µM; in the series on LoVo [8] it was 2.7 µM; in the series with SW-620 [9], over 10 µM; in the series on NHDF, over 50 µM. Further, in the series on RKO [17], the IC50 came to 2.9 µM.
For `COc1ccc(/C=C2\CCC/C(=C\c3cc(OC)c(OC)c(OC)c3)C2=O)cc1OC`, the concentration for half-maximal inhibition (IC50) was determined as 1.5 µM in the series on HT-29 [1]; 1.9 µM in the series on T84 [4]; 1.7 µM in the series on NCI-H508 [6]; 1.7 µM with LoVo [8]; 1.6 µM with SW-620 [9]; 1.3 µM in the series with RKO [17]. Besides, the selectivity ratio at 72 h in series [2], in series [3], in series [5], in series [11], in series [12] and in series [14] was 3.1 to 4.5 throughout. In addition, the result with RKO [7], in the series with HT-29 [10], in the series on NCI-H508 [13], in the series with T84 [15], in the series with LoVo [16] and in the series on SW-620 [18] was Active.
